Here are results for 23 compounds from patent US11970469B2 (Oxford University Innovation Limited, priority 2018, dated 2024).

Experiment [1] has as its target GST-human KRas166 (G12V) GPPNHP (Homo sapiens, UniProt P01116, G12V). Briefly: KRas small-molecule screening by SPR (BIACORE T200). The format is binding. Set-up: made in house; host or cells: E. coli C41(DE3); key: SPR response units (RU). To be noted: compounds at final concentration of 100 uM; immobilised KRAS166 (G12V) GPPNHP; no unit printed (method speaks of response units). As for the experimental part: For SPR assays pGEX-KRAS(G12V) plasmid was transformed into E. coli C41(DE3). Bacterial cells were cultured at 37° C. to an OD600 of 0.6 and induced with IPTG (final 0.1 mM) at 18° C. over night. The GST fusion proteins were extracted from bacteria pellets after cell disruption in 140 mM NaCl, 2.7 mM KCl, 10 mM NaH2PO4, 1.8 mM KH2PO4, 1 mM EDTA, 2 mM MgCl2 pH 7.4 and purified by glutathione-sepharose column chromatography (GE Healthcare), eluting with 50 mM Tris-HCl pH8.0, 10 mM reduced glutathione, 1 mM DTT, 2 mM MgCl2. The eluted proteins were dialysed against 50 mM Tris-HCl pH8.0, 1 mM DTT, 2 mM MgCl2 and concentrated to 10 mg/ml using a Biomax-30 ULTRAFREE-15 centrifugal filter device (Millipore). Purified KRAS protein was loaded with GPPNHP as described elsewhere (Pacold et al., 2000). Loaded protein was then purified by gel filtration on a HiLoad Superdex-75 HR column (GE Healthcare) in 1×PBS pH7.4, 5 mM MgCl2 and concentrated for storage. Protocol for KRas small-molecule screening and affinity measurements by SPR
To a previously immobilized CM5 chip (GE Healthcare BR-1005-30) with anti GST antibody via amine coupling method, GST in channel 1 and GST-human KRas166 (G12V) GPPNHP in channel 2 were immobilised. GST was immobilised between 2,000 and 5,000 Response units. KRAS166 (G12V) was immobilized between 10,000 to 15,000 Response Units.
In a 96 well plate, compounds were diluted in […], 5 mM MgCl2 and 5% DMSO Buffer to a final concentration of 100 uM. DCAI was used as positive control. Experiment also included a solvent correction curve for 5% DMSO. Screening and evaluation of the protein immobilization and the compounds screening was done accordingly to the BIACORE T200 control and evaluation software.
Calculations for how many response units are required for a 1:1 ratio of compound/protein interaction are shown below. • Protein immobilisation: 10,000 RU; average fragment 300 Da in size. Rmax=(MWA/MWL)×RL×SM • MWA is the molecular weight of the analyte in Da • MWL is the molecular weight of the ligand in Da • RL is the immobilization level in RU • SM is the molar stoichiometry (assume 1:1) • Rmax=300/47,500×10,000×1 • Rmax=63 RU. BRET2 Cell Assay
For orientation: In SPR one partner is held on a chip, and binding of the other changes the refractive index at the surface.

The next experiment deals with RASG12D/CRAF FL. The experiment is described as follows: BRET2 cell assay with BRET-based RAS biosensor (RAS-effector) in HEK293T. The following applies: 10 uM compound, 20 hours. Here is the method: 650,000 HEK293T were seeded in each well of a 6 well plate. 24 hours later, cells were transfected with an appropriated BRET-based RAS biosensor (i.e. RAS-effector) using Lipofectamine 2000 transfection reagent (Thermo-Fisher). Cells were detached 24 hours later and washed with PBS and seeded in a white 96 well plate (clear bottom, PerkinElmer, cat #6005181) in OptiMEM no phenol red medium (Life Technologies) complemented with 4% FBS. Cells were left for 4 hours at 37° C. before adding compounds. Stock compounds were held at 10 mM in 100% DMSO and diluted in OptiMEM no red phenol+4% FBS to reach 10× the final concentration (2% DMSO for each concentration). The final concentrations in the cells were 0, 5, 10 and 20 μM (therefore the intermediate 10× concentrations were 0, 50, 100 and 200 μM. 10 μL of 10× compounds were added in each well of the 96 well plate to 0, 5, 10 and 20 μM final concentrations (with final 0.2% DMSO each). Quadruplicates were performed for each point. Cells were left for an additional 20 hours at 37° C. before the BRET2 signal reading directly after addition of Coelenterazine 400a substrate (10 μM final) to cells (Cayman Chemicals, cat #16157). BRET2 reading was carried out on an Envision instrument (2103 Multilabel Reader, PerkinElmer) with the BRET2 Dual Emission optical module (515 nm±30 and 410 nm±80; PerkinElmer).

For experiment [2], the system named is DLD1 cells (ATCC CCL-221). Briefly: Cell viability assay, DLD-1 (CellTiter-Glo). The class given is cell-based. The following applies: DLD-1 cells; for IC50: Homo sapiens, 72 h, dose response 5, 10, 15, 20 μM; for effect on DLD-1 viability over the range of concentrations: 72 hour, 5, 10, 15, 20 μM (FIG. 1). As for the experimental part:
DLD1 cells (ATCC CCL-221) are cultured in RPMI-1640 medium plus 10% foetal calf serum and 2 mM L-glutamine at 37° C. 5% CO2. Cells are plated onto white clear bottom 96-well plates (5000 cells/well in 200 μl media) and left to adhere overnight at 37° C., 5% CO2. Next day, test compound (1 μl at 200× concentration in 100% DMSO) is added to give final test compound concentration 1× in 0.5% DMSO. After 72 h of incubation at 37° C. 5% CO2, 20 μl CellTiter-Glo reagent (Promega G7572) is added into each well. Plates are incubated at room temperature with shaking for 30 min and then luminescence is read using a PheraStar plate reader. The concentration of compounds that decrease cell viability by 50% is calculated from dose response curves generated using Dotmatics data analysis software Results
For orientation: ATP-based viability assays read luminescence as a measure of living cells.

In experiment [1], `COc1cccc(-c2ccc(Nc3cccc(C(=O)NCC4CCNCC4)c3)cc2)c1` [Example 17, 3-((3′-methoxy-[1,1′-biphenyl]-4-yl)amino)-N-(piperidin-4-ylmethyl)benzamide] returned an SPR of 396. For `COc1cccc(-c2ccc(Nc3ccc(CN(C)C)cc3)c(OC)c2)c1` [Example 2, N-(4-((dimethylamino)methyl)phenyl)-3,3′-dimethoxy-[1,1′-biphenyl]-4-amine], the “BRET RASG12D/CRAF FL % Inhibition (10 uM)” value in the experiment on RASG12D/CRAF FL was 18%. This compound also had an SPR in experiment [1] of 233. In experiment [2], the IC50 – broadly, the midpoint of a concentration-inhibition curve – was found to be 7.2 µM. In experiment [2], `COc1nc(-c2cccc3c2OCCO3)ccc1Nc1ccc(CN(C)C)cc1` [Abd-7, reference compound] displayed an IC50 of 8.2 µM. Consider `COc1cc(-c2ccc(Nc3ccc(CN(C)C)cc3)cc2)ccc1F` [Example 4, N-(4-((dimethylamino)methyl)phenyl)-4′-fluoro-3′-methoxy-[1,1′-biphenyl]-4-amine], for which the “BRET RASG12D/CRAF FL % Inhibition (10 uM)” value with RASG12D/CRAF FL is given as 24%. In experiment [1], the SPR was determined as 80. Take `O=C(NCC1COc2ccccc2O1)c1ccco1` (centres unmarked) [Abd-2, reference compound]: in experiment [2], the “effect on DLD-1 viability over the range of concentrations” value is reported as “does not affect DLD-1 viability”. On to `COc1cc(C)cc(-c2ccc(Nc3ccc(CN(C)C)cc3)cc2)c1` [Example 7, N-(4-((dimethylamino)methyl)phenyl)-3′-methoxy-5′-methyl-[1,1′-biphenyl]-4-amine], for which the “BRET RASG12D/CRAF FL % Inhibition (10 uM)” value in the experiment with RASG12D/CRAF FL was 6%. The compound further showed an SPR in experiment [1] of 264. In the same order, the values of `COc1cc(F)cc(-c2ccc(Nc3ccc(CN(C)C)cc3)cc2)c1` [Example 6, N-(4-((dimethylamino)methyl)phenyl)-3′-fluoro-5′-methoxy-[1,1′-biphenyl]-4-amine] are 22% and 245. Regarding `COc1cccc(-c2ccc(Nc3ccc(CN(C)C)cc3)c(OC)c2F)c1` [Example 3, N-(4-((dimethylamino)methyl)phenyl)-2-fluoro-3,3′-dimethoxy-[1,1′-biphenyl]-4-amine], the “BRET RASG12D/CRAF FL % Inhibition (10 uM)” value in the experiment with RASG12D/CRAF FL is on record as 26%. The compound also came in with an SPR in experiment [1] of 177. Moreover, 4.5 µM corresponded to half-maximal inhibition in experiment [2] (IC50). In the case of `COc1cccc(-c2ccc(Nc3ccc(C(=O)NCC4CCNCC4)cc3)cc2)c1` [Example 20, 4-((3′-methoxy-[1,1′-biphenyl]-4-yl)amino)-N-(piperidin-4-ylmethyl)benzamide], in experiment [1], the SPR worked out at 1426. As to `COc1cccc(-c2ccc(Nc3cc(CN(C)C)ccc3C)cc2)c1` [Example 11, N-(5-((dimethylamino)methyl)-2-methylphenyl)-3′-methoxy-[1,1′-biphenyl]-4-amine], the “BRET RASG12D/CRAF FL % Inhibition (10 uM)” value with RASG12D/CRAF FL came to 1%. The same compound came in with an SPR in experiment [1] of 69. In the same order, the values of `COc1cccc(-c2ccc(Nc3ccc(CN(C)C)cc3)cn2)c1` [Example 16, N-(4-((dimethylamino)methyl)phenyl)-6-(3-methoxyphenyl)pyridin-3-amine] are 0% and 209. For `COc1cccc(-c2ccc(Nc3cc(C)cc(C)c3)c(OC)c2F)c1` [Example 8, N-(3,5-dimethylphenyl)-2-fluoro-3,3′-dimethoxy-[1,1′-biphenyl]-4-amine] the same measures were 0% and 30. The compound `COc1cccc(-c2ccc(Nc3ccc(C(=O)NCC4CCN(C)CC4)cc3)cc2)c1` [Example 21, 4-((3′-methoxy-[1,1′-biphenyl]-4-yl)amino)-N-((1-methylpiperidin-4-yl)methyl)benzamide] yielded an SPR in experiment [1] of 1583.

In the case of `COc1cccc(-c2ccc(Nc3cc(C(=O)N(C)C)ccc3C)cc2)c1` [Example 10, 3-((3′-methoxy-[1,1′-biphenyl]-4-yl)amino)-N,N,4-trimethylbenzamide], the “BRET RASG12D/CRAF FL % Inhibition (10 uM)” value in the experiment on RASG12D/CRAF FL amounted to 0%. This compound yielded an SPR in experiment [1] of 28. Compound `COc1cccc(-c2ccc(Nc3ccc(C(=O)NCC4CCN(Cc5ccccc5)CC4)cc3)cc2)c1` [Example 23, N-((1-benzylpiperidin-4-yl)methyl)-4-((3′-methoxy-[1,1′-biphenyl]-4-yl)amino)benzamide] came in with an SPR in experiment [1] of 99.

`COc1cc(-c2ccc(Nc3ccc(CN(C)C)cc3)cc2)cc(F)c1F` [Example 5, N-(4-((dimethylamino)methyl)phenyl)-3′,4′-difluoro-5′-methoxy-[1,1′-biphenyl]-4-amine]: the “BRET RASG12D/CRAF FL % Inhibition (10 uM)” value with RASG12D/CRAF FL is reported as 33%. In experiment [1], this compound returned an SPR of 127. In the same order, the values of `COc1cccc(-c2ccc(Nc3cccc(CN(C)C)c3)c(OC)n2)c1` [Example 15, N-(3-((dimethylamino)methyl)phenyl)-2-methoxy-6-(3-methoxyphenyl)pyridin-3-amine] are 35% and 84. `COc1cccc(-c2ccc(Nc3cccc(CN4CC(C)OC(C)C4)c3)cc2)c1` (centres unmarked) [Example 12, N-(3-((2,6-dimethylmorpholino)methyl)phenyl)-3′-methoxy-[1,1′-biphenyl]-4-amine]: the “BRET RASG12D/CRAF FL % Inhibition (10 uM)” value in the experiment on RASG12D/CRAF FL is 0%. Besides, in experiment [1], the SPR turned out to be 55.

Consider “N-(3-((2,6-dimethylmorpholino)methyl)phenyl)-3′-methoxy-[1,1′-biphenyl]-4-amine [Example 13]”, for which the “BRET RASG12D/CRAF FL % Inhibition (10 uM)” value with RASG12D/CRAF FL is 9%. Moreover, in experiment [1], the SPR is 43.

`COc1cccc(-c2ccc(Nc3cc(C)cc(C)c3)cc2)c1` [Example 9, N-(3,5-dimethylphenyl)-3′-methoxy-[1,1′-biphenyl]-4-amine]: in the experiment with RASG12D/CRAF FL, the “BRET RASG12D/CRAF FL % Inhibition (10 uM)” value was found to be 2%. This compound came in with an SPR in experiment [1] of 28. For `COc1cc(-c2ccc(Nc3ccc(CN(C)C)cc3)cc2)ccc1C` [Example 18, N-(4-((dimethylamino)methyl)phenyl)-3′-methoxy-4′-methyl-[1,1′-biphenyl]-4-amine] the same measures were 13% and 119. For the compound `COc1cccc(-c2ccc(Nc3ccc(CN(C)C)cc3)c(OC)n2)c1` [Example 14, N-(4-((dimethylamino)methyl)phenyl)-2-methoxy-6-(3-methoxyphenyl)pyridin-3-amine], in the experiment on RASG12D/CRAF FL, the “BRET RASG12D/CRAF FL % Inhibition (10 uM)” value amounted to 42%. The SPR in experiment [1] is 152. Consider `COc1cccc(-c2cccc(CC3(C(=O)NCCn4ccnc4)CCOCC3)c2)c1` [PPIN-2, reference compound], for which, in experiment [2], the “effect on DLD-1 viability over the range of concentrations” value is reported as “does not affect DLD-1 viability”.
